Experimental data from PubChem BioAssay AID1745844 (Carcinogenic Potency Database (CPDB), 2022).
Active and inactive are the calls of the source. How the calls were made is not given here.

Test system: rodent lifetime carcinogenesis bioassay, tumor incidence TD50
Experiment: carcinogenic potency in animals, long-term in vivo studies, CPDB compilation (AID 1745844)

**Q.** Which results are given for `CNNCc1ccc(C(=O)NC(C)C)cc1`?
**A.** TD50 (monkey, strain Cynomolgus [Macaca fascicularis], both sexes, several routes, site: all sites, lesion: acute nonlymphocytic leukemia, dosed 825 weeks, study length 980 weeks): 14.8 mg/kg/day; TD50 (monkey, strain Cynomolgus [Macaca fascicularis], both sexes, several routes, site: all sites, lesion: lymphocytic lymphoma, dosed 825 weeks, study length 980 weeks): 21.1 mg/kg/day; TD50 (monkey, strain Cynomolgus [Macaca fascicularis], both sexes, several routes, site: any site (literature study), lesion: malignant tumor, dosed 825 weeks, study length 980 weeks): 1.73 mg/kg/day; TD50 (monkey, strain Cynomolgus [Macaca fascicularis], both sexes, several routes, site: bone, lesion: osteosarcoma, dosed 825 weeks, study length 980 weeks): 5.91 mg/kg/day; TD50 (monkey, strain Cynomolgus [Macaca fascicularis], both sexes, several routes, site: brain, lesion: astrocytoma, dosed 825 weeks, study length 980 weeks): 6.19 mg/kg/day; TD50 (monkey, strain Cynomolgus [Macaca fascicularis], both sexes, several routes, site: kidney, lesion: hemangiosarcoma, dosed 825 weeks, study length 980 weeks): 23.5 mg/kg/day; TD50 (monkey, strain Rhesus [Macaca mulatta], both sexes, several routes, site: all sites, lesion: acute nonlymphocytic leukemia, dosed 825 weeks, study length 1182 weeks): 4.21 mg/kg/day; TD50 (monkey, strain Rhesus [Macaca mulatta], both sexes, several routes, site: any site (literature study), lesion: malignant tumor, dosed 825 weeks, study length 1182 weeks): 1.9 mg/kg/day; TD50 (monkey, strain Rhesus [Macaca mulatta], both sexes, several routes, site: cecum, lesion: adenocarcinoma, dosed 825 weeks, study length 1182 weeks): 5.16 mg/kg/day; TD50 (monkey, strain Rhesus [Macaca mulatta], both sexes, several routes, site: humerus, lesion: osteosarcoma, dosed 825 weeks, study length 1182 weeks): 32.7 mg/kg/day; TD50 (monkey, strain Rhesus [Macaca mulatta], both sexes, several routes, site: kidney, lesion: hemangiosarcoma, dosed 825 weeks, study length 1182 weeks): 39.6 mg/kg/day; TD50 (mouse, strain B6C3F1, females, i.p., site: all sites + brain + lung + uterus, lesion: leukemia + lymphoma + olfactory neuroblastoma + alveolar/bronchiolar adenoma + adenocarcinoma, NOS, dosed 52 weeks, study length 85 weeks): 0.194 mg/kg/day; TD50 (mouse, strain B6C3F1, females, i.p., site: all sites, lesion: leukemia + lymphoma, dosed 52 weeks, study length 80 weeks): 0.69 mg/kg/day; TD50 (mouse, strain B6C3F1, females, i.p., site: all sites, lesion: leukemia + lymphoma, dosed 52 weeks, study length 85 weeks): 0.758 mg/kg/day; TD50 (mouse, strain B6C3F1, females, i.p., site: all sites, lesion: lymphoma, dosed 52 weeks, study length 80 weeks): 0.855 mg/kg/day; TD50 (mouse, strain B6C3F1, females, i.p., site: all sites, lesion: lymphoma, dosed 52 weeks, study length 85 weeks): 0.908 mg/kg/day; TD50 (mouse, strain B6C3F1, females, i.p., site: any site (literature study), lesion: several types, types named in the paper, dosed 52 weeks, study length 85 weeks): 0.193 mg/kg/day; TD50 (mouse, strain B6C3F1, females, i.p., site: brain, lesion: olfactory neuroblastoma, dosed 52 weeks, study length 80 weeks): 5.62 mg/kg/day; TD50 (mouse, strain B6C3F1, females, i.p., site: brain, lesion: olfactory neuroblastoma, dosed 52 weeks, study length 85 weeks): 6.34 mg/kg/day; TD50 (mouse, strain B6C3F1, females, i.p., site: lung, lesion: alveolar/bronchiolar adenoma + alveolar/bronchiolar carcinoma, dosed 52 weeks, study length 85 weeks): 3.83 mg/kg/day; TD50 (mouse, strain B6C3F1, females, i.p., site: lung, lesion: alveolar/bronchiolar adenoma, dosed 52 weeks, study length 80 weeks): 3.39 mg/kg/day; TD50 (mouse, strain B6C3F1, females, i.p., site: lung, lesion: alveolar/bronchiolar adenoma, dosed 52 weeks, study length 85 weeks): 3.83 mg/kg/day; TD50 (mouse, strain B6C3F1, females, i.p., site: uterus, lesion: adenocarcinoma, NOS, dosed 52 weeks, study length 80 weeks): 0.411 mg/kg/day; TD50 (mouse, strain B6C3F1, females, i.p., site: uterus, lesion: adenocarcinoma, NOS, dosed 52 weeks, study length 85 weeks): 0.253 mg/kg/day; TD50 (mouse, strain B6C3F1, males, i.p., site: all sites + brain + lung, lesion: leukemia + lymphoma + olfactory neuroblastoma + undifferentiated carcinoma + alveolar/bronchiolar adenoma + alveolar/bronchiolar c, dosed 52 weeks, study length 85 weeks): 0.511 mg/kg/day; TD50 (mouse, strain B6C3F1, males, i.p., site: all sites, lesion: leukemia + lymphoma, dosed 52 weeks, study length 85 weeks): 3.34 mg/kg/day; TD50 (mouse, strain B6C3F1, males, i.p., site: any site (literature study), lesion: several types, types named in the paper, dosed 52 weeks, study length 85 weeks): 0.464 mg/kg/day; TD50 (mouse, strain B6C3F1, males, i.p., site: brain, lesion: olfactory neuroblastoma + undifferentiated carcinoma, dosed 52 weeks, study length 85 weeks): 4.51 mg/kg/day; TD50 (mouse, strain B6C3F1, males, i.p., site: brain, lesion: olfactory neuroblastoma, dosed 52 weeks, study length 85 weeks): 5.19 mg/kg/day; TD50 (mouse, strain B6C3F1, males, i.p., site: liver, lesion: hepatocellular adenoma + hepatocellular carcinoma + neoplastic nodule, dosed 52 weeks, study length 85 weeks): 3.28 mg/kg/day; TD50 (mouse, strain B6C3F1, males, i.p., site: lung, lesion: alveolar/bronchiolar adenoma + alveolar/bronchiolar carcinoma, dosed 52 weeks, study length 85 weeks): 0.623 mg/kg/day; TD50 (mouse, strain B6C3F1, males, i.p., site: lung, lesion: alveolar/bronchiolar adenoma, dosed 52 weeks, study length 85 weeks): 0.721 mg/kg/day; TD50 (mouse, strain Swiss, females, i.p., site: all sites, lesion: leukemia, dosed 26 weeks, study length 76 weeks): 3.72 mg/kg/day; TD50 (mouse, strain Swiss, females, i.p., site: all sites, lesion: lymphosarcoma, dosed 26 weeks, study length 76 weeks): 6.99 mg/kg/day; TD50 (mouse, strain Swiss, females, i.p., site: any site (literature study), lesion: benign tumor, dosed 26 weeks, study length 76 weeks): 27.8 mg/kg/day; TD50 (mouse, strain Swiss, females, i.p., site: any site (literature study), lesion: malignant tumor, dosed 26 weeks, study length 76 weeks): 0.391 mg/kg/day; TD50 (mouse, strain Swiss, females, i.p., site: any site (literature study), lesion: several types, types named in the paper, dosed 26 weeks, study length 76 weeks): 0.244 mg/kg/day; TD50 (mouse, strain Swiss, females, i.p., site: lung, lesion: several types, types named in the paper, dosed 26 weeks, study length 76 weeks): 1.05 mg/kg/day; TD50 (mouse, strain Swiss, females, i.p., site: uterus, lesion: carcinoma, dosed 26 weeks, study length 76 weeks): 5.75 mg/kg/day; TD50 (mouse, strain Swiss, females, i.p., site: uterus, lesion: sarcoma, dosed 26 weeks, study length 76 weeks): 6.11 mg/kg/day; TD50 (mouse, strain Swiss, males, i.p., site: any site (literature study), lesion: benign tumor, dosed 26 weeks, study length 78 weeks): 9.84 mg/kg/day; TD50 (mouse, strain Swiss, males, i.p., site: any site (literature study), lesion: malignant tumor, dosed 26 weeks, study length 78 weeks): 1.74 mg/kg/day; TD50 (mouse, strain Swiss, males, i.p., site: any site (literature study), lesion: several types, types named in the paper, dosed 26 weeks, study length 78 weeks): 1.15 mg/kg/day; TD50 (mouse, strain Swiss, males, i.p., site: lung, lesion: several types, types named in the paper, dosed 26 weeks, study length 78 weeks): 1.53 mg/kg/day; TD50 (rat, strain BR 46, males, i.v., site: any site (literature study), lesion: malignant tumor, dosed 52 weeks, study length 104 weeks): 3.93 mg/kg/day; TD50 (rat, strain BR 46, males, i.v., site: any site (literature study), lesion: several types, types named in the paper, dosed 52 weeks, study length 104 weeks): 4.01 mg/kg/day; TD50 (rat, strain Sprague-Dawley, females, i.p., site: all sites + brain + cerebrum + mammary gland, lesion: lymphoma + olfactory neuroblastoma + mucinous adenocarcinoma + adenocarcinoma, NOS + adenoma, NOS, dosed 26 weeks, study length 86 weeks): 0.337 mg/kg/day; TD50 (rat, strain Sprague-Dawley, females, i.p., site: all sites, lesion: lymphoma, dosed 26 weeks, study length 80 weeks): 4.48 mg/kg/day; TD50 (rat, strain Sprague-Dawley, females, i.p., site: all sites, lesion: lymphoma, dosed 26 weeks, study length 86 weeks): 5.18 mg/kg/day; TD50 (rat, strain Sprague-Dawley, females, i.p., site: any site (literature study), lesion: several types, types named in the paper, dosed 26 weeks, study length 86 weeks): 0.329 mg/kg/day; TD50 (rat, strain Sprague-Dawley, females, i.p., site: brain + cerebrum, lesion: olfactory neuroblastoma + mucinous adenocarcinoma, dosed 26 weeks, study length 80 weeks): 0.36 mg/kg/day; TD50 (rat, strain Sprague-Dawley, females, i.p., site: brain + cerebrum, lesion: olfactory neuroblastoma + mucinous adenocarcinoma, dosed 26 weeks, study length 86 weeks): 0.416 mg/kg/day; TD50 (rat, strain Sprague-Dawley, females, i.p., site: brain, lesion: olfactory neuroblastoma, dosed 26 weeks, study length 80 weeks): 0.361 mg/kg/day; TD50 (rat, strain Sprague-Dawley, females, i.p., site: brain, lesion: olfactory neuroblastoma, dosed 26 weeks, study length 86 weeks): 0.418 mg/kg/day; TD50 (rat, strain Sprague-Dawley, females, i.p., site: mammary gland, lesion: adenocarcinoma, NOS + adenoma, NOS, dosed 26 weeks, study length 80 weeks): 0.396 mg/kg/day; TD50 (rat, strain Sprague-Dawley, females, i.p., site: mammary gland, lesion: adenocarcinoma, NOS + adenoma, NOS, dosed 26 weeks, study length 86 weeks): 0.458 mg/kg/day; TD50 (rat, strain Sprague-Dawley, females, i.p., site: mammary gland, lesion: adenocarcinoma, NOS, dosed 26 weeks, study length 80 weeks): 0.397 mg/kg/day; TD50 (rat, strain Sprague-Dawley, females, i.p., site: mammary gland, lesion: adenocarcinoma, NOS, dosed 26 weeks, study length 86 weeks): 0.459 mg/kg/day; TD50 (rat, strain Sprague-Dawley, males, i.p., site: all sites + brain + mammary gland + olfactory bulb, lesion: leukemia + lymphoma + carcinoma, NOS + olfactory neuroblastoma + adenocarcinoma, NOS + adenoma, NOS, dosed 26 weeks, study length 61 weeks): 0.284 mg/kg/day; TD50 (rat, strain Sprague-Dawley, males, i.p., site: all sites, lesion: leukemia + lymphoma, dosed 26 weeks, study length 61 weeks): 2.1 mg/kg/day; TD50 (rat, strain Sprague-Dawley, males, i.p., site: all sites, lesion: leukemia, dosed 26 weeks, study length 61 weeks): 13.3 mg/kg/day; TD50 (rat, strain Sprague-Dawley, males, i.p., site: all sites, lesion: lymphoma, dosed 26 weeks, study length 61 weeks): 2.51 mg/kg/day; TD50 (rat, strain Sprague-Dawley, males, i.p., site: any site (literature study), lesion: several types, types named in the paper, dosed 26 weeks, study length 61 weeks): 0.186 mg/kg/day; TD50 (rat, strain Sprague-Dawley, males, i.p., site: brain + olfactory bulb, lesion: carcinoma, NOS + olfactory neuroblastoma + adenocarcinoma, NOS, dosed 26 weeks, study length 61 weeks): 0.343 mg/kg/day; TD50 (rat, strain Sprague-Dawley, males, i.p., site: mammary gland, lesion: adenocarcinoma, NOS + adenoma, NOS, dosed 26 weeks, study length 61 weeks): 4.5 mg/kg/day; TD50 (rat, strain Sprague-Dawley, males, i.p., site: mammary gland, lesion: adenocarcinoma, NOS, dosed 26 weeks, study length 61 weeks): 4.85 mg/kg/day; TD50 (rat, strain Sprague-Dawley, males, i.p., site: olfactory bulb, lesion: adenocarcinoma, NOS, dosed 26 weeks, study length 61 weeks): 4.67 mg/kg/day

**Q.** With `CNC(=O)ON=C(SC)C(=O)N(C)C` as the compound, how does the carcinogen call (mouse, strain Charles River CD1, females, in feed, site: any site (literature study), lesion: several types, types named in the paper, dosed 104 weeks, study length 104 weeks) read?
**A.** negative (inactive)

**Q.** And the carcinogen call (mouse, strain Charles River CD1, males, in feed, site: any site (literature study), lesion: several types, types named in the paper, dosed 104 weeks, study length 104 weeks)?
**A.** negative (inactive)

**Q.** And the carcinogen call (rat, strain Charles River CD (Sprague-Dawley), females, in feed, site: liver, lesion: hepatocellular hyperplastic nodule, dosed 104 weeks, study length 104 weeks)?
**A.** negative (inactive)

**Q.** What about the carcinogen call (rat, strain Charles River CD (Sprague-Dawley), males, in feed, site: liver, lesion: one or several types, types not named, dosed 104 weeks, study length 104 weeks) of the same compound?
**A.** negative (inactive)

**Q.** Which carcinogen call (mouse, strain B6C3F1, females, by gavage, site: any site (literature study), lesion: several types, types named in the paper, dosed 103 weeks, study length 104 weeks) does the source give for `O=C1CCC(=O)O1` here?
**A.** negative (inactive)

**Q.** And the TD50 (mouse, strain B6C3F1, females, by gavage, site: lung, lesion: alveolar/bronchiolar adenoma + alveolar/bronchiolar carcinoma, dosed 103 weeks, study length 104 weeks)?
**A.** 4690 mg/kg/day

**Q.** And the carcinogen call (mouse, strain B6C3F1, males, by gavage, site: any site (literature study), lesion: several types, types named in the paper, dosed 103 weeks, study length 104 weeks)?
**A.** negative (inactive)

**Q.** And the carcinogen call (rat, strain Fischer 344, females, by gavage, site: any site (literature study), lesion: several types, types named in the paper, dosed 103 weeks, study length 105 weeks)?
**A.** negative (inactive)

**Q.** And the TD50 (rat, strain Fischer 344, females, by gavage, site: liver, lesion: hepatocellular adenoma + hepatocellular carcinoma + neoplastic nodule, dosed 103 weeks, study length 105 weeks)?
**A.** 1300 mg/kg/day

**Q.** And the carcinogen call (rat, strain Fischer 344, males, by gavage, site: any site (literature study), lesion: several types, types named in the paper, dosed 103 weeks, study length 105 weeks)?
**A.** negative (inactive)
